Results as given in patent US9936701B2, “Herbicidal compounds” (Syngenta Participations AG, priority 2013, dated 2018).

Legend:
[1] = tested on: a variety of test species; assay: Post-emergence herbicidal activity (glasshouse, sprayed after 8 days cultivation, evaluated after 13 days); format: in vivo; set-up: key: 5=total damage to plant; 0=no damage to plant; details: rate 1000 g/Ha, scale 0-5
In short: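 Pot-grown plants, 8 days after sowing, were sprayed with compound formulated in acetone/water (50:50) with 0.5% Tween 20. Glasshouse conditions 24/16° C day/night, 14 h light, 65% humidity; damage scored after 13 days on a 0 (none) to 5 (total) scale.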

[2] = tested on: a variety of test species; assay: Pre-emergence herbicidal activity (glasshouse, sprayed one day after sowing, evaluated after 13 days); format: in vivo; set-up: key: 5=total damage to plant; 0=no damage to plant; details: application pre-emergence, rate 1000 g/Ha, scale 0-5
In short: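 Seeds sown in standard soil in pots, sprayed one day later (pre-emergence) with aqueous solution from acetone/water (50:50) formulation with 0.5% Tween 20. Glasshouse at 24/16 °C day/night, 14 h light, 65% humidity, watered twice daily. Damage scored after 13 days, 0 (none) to 5 (total).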

CC1=C(Cl)C(=O)N(c2cc(C(C)(C)C)on2)C1O (stereo not drawn) [A2, 1-(5-tert-butylisoxazol-3-yl)-4-chloro-2-hydroxy-3-methyl-2H-pyrrol-5-one]
ABUTH (Abutilon theophrasti) damage score, application post-emergence [1]: 5 | ALOMY (Alopecurus myosuroides) damage score, application post-emergence [1]: 5 | AMARE (Amaranthus retroflexus) damage score, application post-emergence [1]: 5 | ECHCG (Echinochloa crus-galli) damage score, application post-emergence [1]: 5 | SETFA (Setaria faberi) damage score, application post-emergence [1]: 5 | ZEAMX (Zea mays) damage score, application post-emergence [1]: 5 | Pre-emergence herbicidal damage score, ABUTH [2]: 5 | Pre-emergence herbicidal damage score, ALOMY [2]: 3 | Pre-emergence herbicidal damage score, AMARE [2]: 5 | Pre-emergence herbicidal damage score, ECHCG [2]: 5 | Pre-emergence herbicidal damage score, SETFA [2]: 5 | Pre-emergence herbicidal damage score, ZEAMX [2]: 3 | melting point: 156 to 158 °C

CC1=C(Cl)C(=O)N(c2cc(C(C)C)on2)C1O (stereo not drawn) [A11]
ABUTH (Abutilon theophrasti) damage score, application post-emergence [1]: 5 | ALOMY (Alopecurus myosuroides) damage score, application post-emergence [1]: 5 | AMARE (Amaranthus retroflexus) damage score, application post-emergence [1]: 5 | ECHCG (Echinochloa crus-galli) damage score, application post-emergence [1]: 5 | SETFA (Setaria faberi) damage score, application post-emergence [1]: 5 | ZEAMX (Zea mays) damage score, application post-emergence [1]: 5 | Pre-emergence herbicidal damage score, ABUTH [2]: 5 | Pre-emergence herbicidal damage score, ALOMY [2]: 4 | Pre-emergence herbicidal damage score, AMARE [2]: 5 | Pre-emergence herbicidal damage score, ECHCG [2]: 5 | Pre-emergence herbicidal damage score, SETFA [2]: 5 | Pre-emergence herbicidal damage score, ZEAMX [2]: 2 | melting point: 126 to 128 °C

CC1=C(Cl)C(=O)N(c2cc(CC(C)C)on2)C1O (stereo not drawn) [A12]
ABUTH (Abutilon theophrasti) damage score, application post-emergence [1]: 5 | ALOMY (Alopecurus myosuroides) damage score, application post-emergence [1]: 5 | AMARE (Amaranthus retroflexus) damage score, application post-emergence [1]: 5 | ECHCG (Echinochloa crus-galli) damage score, application post-emergence [1]: 5 | SETFA (Setaria faberi) damage score, application post-emergence [1]: 5 | ZEAMX (Zea mays) damage score, application post-emergence [1]: 4 | Pre-emergence herbicidal damage score, ABUTH [2]: 5 | Pre-emergence herbicidal damage score, ALOMY [2]: 4 | Pre-emergence herbicidal damage score, AMARE [2]: 4 | Pre-emergence herbicidal damage score, ECHCG [2]: 5 | Pre-emergence herbicidal damage score, SETFA [2]: 5 | Pre-emergence herbicidal damage score, ZEAMX [2]: 1 | melting point: 138 to 140 °C

CC1=C(Cl)C(=O)N(c2noc(C(C)(C)C)c2F)C1O (stereo not drawn) [A19, 1-(5-tert-butyl-4-fluoro-isoxazol-3-yl)-4-chloro-2-hydroxy-3-methyl-2H-pyrrol-5-one]
ALOMY (Alopecurus myosuroides) damage score, application post-emergence [1]: 5 | AMARE (Amaranthus retroflexus) damage score, application post-emergence [1]: 5 | ECHCG (Echinochloa crus-galli) damage score, application post-emergence [1]: 5 | SETFA (Setaria faberi) damage score, application post-emergence [1]: 5 | Pre-emergence herbicidal damage score, ALOMY [2]: 4 | Pre-emergence herbicidal damage score, AMARE [2]: 5 | Pre-emergence herbicidal damage score, ECHCG [2]: 5 | Pre-emergence herbicidal damage score, SETFA [2]: 5 | melting point: 98 to 100 °C

CC1=C(Cl)C(=O)N(c2cc(C(C)(C)C(N)=O)on2)C1O (stereo not drawn) [A67, 2-[3-(4-chloro-2-hydroxy-3-methyl-5-oxo-2H-pyrrol-1-yl)isoxazol-5-yl]-2-methyl-propanamide]
melting point: 169 to 171 °C

CC(=O)OC1C(N)=C(Cl)C(=O)N1c1cc(C(C)(C)C)on1 (stereo not drawn) [C13]
ABUTH (Abutilon theophrasti) damage score, application post-emergence [1]: 5 | ALOMY (Alopecurus myosuroides) damage score, application post-emergence [1]: 5 | AMARE (Amaranthus retroflexus) damage score, application post-emergence [1]: 5 | ECHCG (Echinochloa crus-galli) damage score, application post-emergence [1]: 5 | SETFA (Setaria faberi) damage score, application post-emergence [1]: 5 | ZEAMX (Zea mays) damage score, application post-emergence [1]: 5 | Pre-emergence herbicidal damage score, ABUTH [2]: 5 | Pre-emergence herbicidal damage score, ALOMY [2]: 4 | Pre-emergence herbicidal damage score, AMARE [2]: 5 | Pre-emergence herbicidal damage score, ECHCG [2]: 5 | Pre-emergence herbicidal damage score, SETFA [2]: 4 | Pre-emergence herbicidal damage score, ZEAMX [2]: 4

COC1=C(C)CN(c2cc(C(C)(C)C)on2)C1=O [D9]
ALOMY (Alopecurus myosuroides) damage score, application post-emergence [1]: 5 | AMARE (Amaranthus retroflexus) damage score, application post-emergence [1]: 5 | ECHCG (Echinochloa crus-galli) damage score, application post-emergence [1]: 5 | SETFA (Setaria faberi) damage score, application post-emergence [1]: 5 | Pre-emergence herbicidal damage score, ALOMY [2]: 4 | Pre-emergence herbicidal damage score, AMARE [2]: 5 | Pre-emergence herbicidal damage score, ECHCG [2]: 4 | Pre-emergence herbicidal damage score, SETFA [2]: 4

COC1=C(OC)C(O)N(c2cc(C(C)(C)C)on2)C1=O (stereo not drawn) [F1]
ABUTH (Abutilon theophrasti) damage score, application post-emergence [1]: 5 | ALOMY (Alopecurus myosuroides) damage score, application post-emergence [1]: 4 | AMARE (Amaranthus retroflexus) damage score, application post-emergence [1]: 5 | ECHCG (Echinochloa crus-galli) damage score, application post-emergence [1]: 5 | SETFA (Setaria faberi) damage score, application post-emergence [1]: 5 | ZEAMX (Zea mays) damage score, application post-emergence [1]: 5 | Pre-emergence herbicidal damage score, ABUTH [2]: 5 | Pre-emergence herbicidal damage score, ALOMY [2]: 3 | Pre-emergence herbicidal damage score, AMARE [2]: 5 | Pre-emergence herbicidal damage score, ECHCG [2]: 4 | Pre-emergence herbicidal damage score, SETFA [2]: 4 | Pre-emergence herbicidal damage score, ZEAMX [2]: 2

COC1=C(C)C(=O)N(c2cc(C(C)(C)C)on2)C1O (stereo not drawn) [G1]
ABUTH (Abutilon theophrasti) damage score, application post-emergence [1]: 5 | ALOMY (Alopecurus myosuroides) damage score, application post-emergence [1]: 5 | AMARE (Amaranthus retroflexus) damage score, application post-emergence [1]: 5 | ECHCG (Echinochloa crus-galli) damage score, application post-emergence [1]: 5 | SETFA (Setaria faberi) damage score, application post-emergence [1]: 5 | ZEAMX (Zea mays) damage score, application post-emergence [1]: 5 | Pre-emergence herbicidal damage score, ABUTH [2]: 5 | Pre-emergence herbicidal damage score, ALOMY [2]: 3 | Pre-emergence herbicidal damage score, AMARE [2]: 5 | Pre-emergence herbicidal damage score, ECHCG [2]: 5 | Pre-emergence herbicidal damage score, SETFA [2]: 4 | Pre-emergence herbicidal damage score, ZEAMX [2]: 1

COC1=C(C)C(=O)N(c2cc(C)on2)C1O (stereo not drawn) [G2]
ABUTH (Abutilon theophrasti) damage score, application post-emergence [1]: 3 | ALOMY (Alopecurus myosuroides) damage score, application post-emergence [1]: 2 | AMARE (Amaranthus retroflexus) damage score, application post-emergence [1]: 5 | ECHCG (Echinochloa crus-galli) damage score, application post-emergence [1]: 2 | SETFA (Setaria faberi) damage score, application post-emergence [1]: 1 | ZEAMX (Zea mays) damage score, application post-emergence [1]: 1 | Pre-emergence herbicidal damage score, ABUTH [2]: 5 | Pre-emergence herbicidal damage score, ALOMY [2]: 1 | Pre-emergence herbicidal damage score, AMARE [2]: 5 | Pre-emergence herbicidal damage score, ECHCG [2]: 3 | Pre-emergence herbicidal damage score, SETFA [2]: 3 | Pre-emergence herbicidal damage score, ZEAMX [2]: 1

COCC(C)(C)c1cc(N2C(=O)C(C)=C(OC)C2O)no1 (stereo not drawn) [G3]
ABUTH (Abutilon theophrasti) damage score, application post-emergence [1]: 5 | ALOMY (Alopecurus myosuroides) damage score, application post-emergence [1]: 4 | AMARE (Amaranthus retroflexus) damage score, application post-emergence [1]: 3 | ECHCG (Echinochloa crus-galli) damage score, application post-emergence [1]: 5 | SETFA (Setaria faberi) damage score, application post-emergence [1]: 5 | ZEAMX (Zea mays) damage score, application post-emergence [1]: 5 | Pre-emergence herbicidal damage score, ABUTH [2]: 5 | Pre-emergence herbicidal damage score, ALOMY [2]: 3 | Pre-emergence herbicidal damage score, AMARE [2]: 5 | Pre-emergence herbicidal damage score, ECHCG [2]: 5 | Pre-emergence herbicidal damage score, SETFA [2]: 5 | Pre-emergence herbicidal damage score, ZEAMX [2]: 4

COC1=C(C)C(=O)N(c2noc(C(C)(C)C)c2C#N)C1O (stereo not drawn) [G7]
ABUTH (Abutilon theophrasti) damage score, application post-emergence [1]: 5 | ALOMY (Alopecurus myosuroides) damage score, application post-emergence [1]: 5 | AMARE (Amaranthus retroflexus) damage score, application post-emergence [1]: 5 | ECHCG (Echinochloa crus-galli) damage score, application post-emergence [1]: 5 | SETFA (Setaria faberi) damage score, application post-emergence [1]: 5 | ZEAMX (Zea mays) damage score, application post-emergence [1]: 5 | Pre-emergence herbicidal damage score, ABUTH [2]: 5 | Pre-emergence herbicidal damage score, ALOMY [2]: 4 | Pre-emergence herbicidal damage score, AMARE [2]: 5 | Pre-emergence herbicidal damage score, ECHCG [2]: 5 | Pre-emergence herbicidal damage score, SETFA [2]: 5 | Pre-emergence herbicidal damage score, ZEAMX [2]: 4
